Test results published in patent publication US20260219274A1, “POLYOL SWEETNERS AND CARDIOVASCULAR AND THROMBOTIC EVENT RISK” (THE CLEVELAND CLINIC FOUNDATION, priority 2023, published 2026).

Key:
clinical = details: human, in vivo
Description: This single center trial was approved by the Cleveland Clinic Institutional Review Board (clinicaltrials.gov identifier NCT04731363). Following subject consent (nonsmokers without CVD, hypertension, or diabetes), blood was drawn after overnight fast and 30 min following consumption of water containing 30 g of […] glucose (n=10, 30.1±11 years of age, 40% male), or erythritol (n=10, 30.5±8 years of age, 50% male), a quantity commonly found in erythritol-sweetened foods and the daily intake of some subjects based on 2013-2014 National Health and Nutrition Examination Survey (NHANES) data and FDA filings.(4,5).
Following erythritol consumption, postprandial circulating erythritol levels (assessed using stable-isotope-dilution liquid-chromatography tandem mass spectrometry (LC/MS/MS)3) were >1000-fold increased compared to baseline levels (median[inter quartile range], 6480[5930-7300]μM versus 3.75[3.35-3.87]μM, P<0.0001). In contrast, circulating erythritol levels remained similar before versus after glucose consumption (3.0[2.6-4.0]μM versus 2.9[2.7-3.8]μM, P=0.87; glucose levels before versus after 86.5(81.8-93.0) versus 127.0(122.3-132.3), P=0.002). […] In contrast, glucose consumption had no effect on platelet aggregation.

[1] = Xylitol intervention study: postprandial plasma xylitol levels and elimination; assay type: in vivo
Description: A third xylitol intervention study (clinicaltrials.gov number: NCT04731363) included 10 prospectively recruited healthy volunteers (35±11 years of age, 50% male, nonsmokers without CVD, hypertension, or diabetes). Fasting (overnight) subjects were provided a standardized artificially sweetened beverage (300 mL) containing 30 g of xylitol dissolved in water with instructions to rapidly consume the drink (within 2 minutes). In the first part of xylitol ingestion studies, pharmacokinetics studies focused on post-prandial plasma levels and time course of elimination of xylitol. For LC-MS/MS analysis of xylitol, serial venous blood and urine sampling was performed at baseline, 30 min, 1 h, 4 h, 6 h and 24 h to establish postprandial peak levels and the time course of xylitol elimination in the first 4 subjects. After we noticed that xylitol levels were rapidly cleared with postprandial xylitol peak levels at 30 min after ingestion in all 4 subjects, we streamlined our protocol in the interest of being both practical and less demanding on subjects, and sampled blood and urine at baseline and after 30 min for the remainder of subjects.
Stable-isotope-dilution LC-MS/MS was developed to specifically quantify xylitol in human and mouse plasma, urine and feces (fecal pellets were dissolved in water and supernatant subjected to LC-MS/MS). Ice cold methanol (800 μL) and internal standard (^13C2-arabitol) were added to the plasma samples (20 μL) or urine (20 μL) previously diluted in MQ water, followed by vortexing and centrifuging (21,000×g; 4° C. for 15 min). The clear supernatant (800 μL) was transferred into a clean, labeled glass tubes (Borosilicate glass 12×75 mm) and dried in a speed vacuum concentrator (Speed vac plus, SC210, Thermo Sevant). Acetylation was used since xylitol is poorly ionizable in order to achieve better retention on the reverse phase column and separation from other structural isomers as well as better ionization to achieve better sensitivity. The dry residue was reconstituted in acetic anhydride (100 μL) and 4-Dimethylaminopyridine (DMAP) in pyridine (100 μl; 1 mg/mL), sealed with safety caps, vortexed and heated (45 min at 80° C.) followed with drying under nitrogen. Dried residues were dissolved in HCl in water (0.1 M; 0.5 mL) and extracted with ethylacetate (2.0 mL). Ethylacetate layer was transferred into a clean glass tube (Borosilicate glass 12×75 mm) and dried under nitrogen. The dry residue was reconstituted in ammonium formate in a mixture of methanol:water (100 μL; 50:50 v/v with 10 mM ammonium formate), tubes were vortexed and liquid was transferred to glass vials with micro-insets and caped. LC-MS/MS analysis was performed on a chromatographic system consisting of two Shimadzu LC-30 AD pumps (Nexcra X2), a CTO 20AC oven operating at 30° C., and a SIL-30 AC-MP autosampler in tandem with a triple quadruple mass spectrometer (8050 series, Shimadzu Scientific Instruments, Inc., Columbia, MD, USA). For chromatographic separation, a Kinetex C18 column (50 mm×2.1 mm; 2.6 μm) (Cat #00B-4462-AN, Phenomenex, Torrance, CA) was used. […] Electrospray ionization in the positive mode was used with multiple reaction monitoring (MRM) for detection of endogenous and stable isotope labeled internal standards. The following transitions were used: m/z 380 [M^+NH4]^+ […] for xylitol, arabitol and ribitol and m/z 382 [M+NH4]^+→305 for [^13C2]-arabitol. The following ion source parameters were applied: nebulizing gas flow, 3 L/min; heating gas flow, 10 L/min; interface temperature, 300° C.; desolvation line temperature, 250° C.; heat block temperature, 400° C.; and drying gas flow, 10 L/min. Accuracy and precision of the method to quantify xylitol (separated from its structural isomers arabitol and ribitol) were assessed by a standard addition method of pure synthetic standard into different plasma pools. […]

Compound | concentration at 30 min (clinical; both sexes) | baseline circulating erythritol levels, median[inter quartile range] (clinical; both) | circulating erythritol levels (clinical; both) | circulating erythritol levels (clinical; both, 30 min) | increase of postprandial circulating erythritol vs baseline (clinical; both, 30 min) | concentration at 30 min ([1]; both sexes, human, plasma, oral, 30 min following ingestion of 30 g xylitol, read-out: plasma levels of xylitol, median [IQR]) | concentration at 4 h ([1]; both sexes, human, plasma, oral, 4 h after 30 g xylitol, read-out: plasma xylitol levels, median [IQR]) | concentration at 6 h ([1]; both sexes, human, plasma, oral, 6 h after 30 g xylitol, read-out: plasma xylitol levels, median [IQR]) | half-life ([1]; both sexes, human, plasma, 30 g xylitol oral) | time of postprandial xylitol peak levels ([1]; first 4 subjects) | time to return of postprandial plasma levels to near baseline ([1]; healthy volunteers) | oral absorption in humans ([1]; oral ingestion)
OC[C@@H](O)[C@@H](O)CO [erythritol] | 6480 µM | 3.75[3.35-3.87] μM | 3.0[2.6-4.0] μM | 2.9[2.7-3.8] μM | > 1000 fold | – | – | – | – | – | – | –
OC[C@@H](O)[C@H](O)[C@@H](O)CO [xylitol] | – | – | – | – | – | 312 µM | 1.87 µM | 0.67 µM | 12.6 min | 30 min | ≤ 6 h | readily absorbed
